Measured values as given in patent US8497074B2, “Granin proteins as markers of heart disease” (Universitetet I Oslo, priority 2008, dated 2013).
Entries after “also recorded” stand apart in the source; their conditions may differ.

Legend:
Type in all cases: cell-based
[1] = system: neonatal rat cardiomyocytes; experiment: CgB gene expression in isolated neonatal cardiomyocytes after stimulation with signaling agents (qRT-PCR)
Procedure: (§1) Neonatal rat cardiomyocytes were isolated from neonatal (1-3 days) Wistar rats (Taconic, Skensved, Denmark) as previously reported. After 24 hours starvation, the cardiomyocytes were stimulated for 24 hours with the following agents; Forskolin [1 and 10 μM], norepinephrine [100 μM], endothelin [77 ng/ml] and angiotensin II [1 μM] (all Sigma, Europe), tumor necrosis factor-α (TNF-α) [10 ng/ml] (BioSource International Camarillo, Calif., USA), interleukin-1β (IL-1β) [10 ng/ml], monocyte chemoattractant protein-1 (MCP-1) [200 ng/ml], transforming growth factor-β (TGF-β) [10 ng/ml] (all R&D Systems, Minneapolis, Minn., USA), and a C-terminal CgB peptide—CgB312-323 [1, 10 and 100 ng/ml] (053-20, Phoenix Pharmaceuticals, Burlingame, Calif., USA).
(§2) Total RNA was isolated from neonatal rat cardiomyocytes according to the protocol (RNeasy mini kit, Qiagen, Valencia, Calif., USA). Along with lysis buffer, the Mixer Mill 300 System (RETSCH, Haan, Germany) and stainless steel beads (Qiagen, Hilden, Germany) were used for mechanical disruption of the cells. RNA concentrations and quality were assessed as earlier described with the NanoDrop system and an Agilent BioAnalyzer 2100. Reverse transcription reactions were performed with iScript Select cDNA Synthesis Kit (Bio-Rad Laboratories, Inc., Hercules, Calif., USA). Gene expression was determined by qRT-PCR with pre-made TaqMan Gene Expression Assays from Applied Biosystems: CgB (Rn01514853—1), BNP (Rn00580641—1), Rp14 (Rn00821091—1). Gene expression in stimulated cells is presented as change vs. gene expression in PBS stimulated cells (normalized vs. control). All samples were run in triplicate and Rp14 gene expression was used as an internal control.
as §1, with “factor-α(TNF-α)” for “factor-α (TNF-α)”, “peptide—CgB312-323 and secretoneurin” for “peptide—CgB312-323”, “(053-20, 047-95,” for “(053-20,”
as §2, with “Biosystems: SgII (Rn01400686—1),” for “Biosystems:”

[2] = system: neonatal rat cardiomyocytes; experiment: SgII gene expression in isolated neonatal cardiomyocytes after stimulation with signaling agents (qRT-PCR); details: stimulated for 24 hours, vs. PBS stimulated cells
Procedure: as §1, with “factor-α(TNF-α)” for “factor-α (TNF-α)”, “peptide—CgB312-323 and secretoneurin” for “peptide—CgB312-323”, “(053-20, 047-95,” for “(053-20,”
as §2, with “Biosystems: SgII (Rn01400686—1),” for “Biosystems:”

[3] = system: neonatal rat cardiomyocytes; experiment: BNP gene expression in isolated neonatal cardiomyocytes after stimulation with signaling agents (qRT-PCR); details: stimulated for 24 hours, vs. PBS stimulated cells
Procedure: as §1, §2
as §1, with “factor-α(TNF-α)” for “factor-α (TNF-α)”, “peptide—CgB312-323 and secretoneurin” for “peptide—CgB312-323”, “(053-20, 047-95,” for “(053-20,”
as §2, with “Biosystems: SgII (Rn01400686—1),” for “Biosystems:”

[4] = neonatal rat cardiomyocytes, stimulated for 24 hours, vs. PBS stimulated cells

C=C[C@@]1(C)CC(=O)[C@]2(O)[C@@]3(C)[C@@H](O)CCC(C)(C)[C@@H]3[C@H](O)[C@H](OC(C)=O)[C@@]2(C)O1 [Forskolin] was tested, and the “CgB production (gene expression) increase” value [1, 4] was 60% and the “SgII gene expression increase” value [2] was 40%.
With CC[C@H](C)[C@H](NC(=O)[C@H](CC(=O)O)NC(=O)[C@H](CC(C)C)NC(=O)[C@H](Cc1c[nH]cn1)NC(=O)[C@@H]1CSSC[C@H](N)C(=O)N[C@@H](CO)C(=O)N[C@H]2CSSC[C@H](NC(=O)[C@H](CCC(=O)O)NC(=O)[C@H](CCCCN)NC(=O)[C@H](CC(=O)O)NC(=O)[C@H](CCSC)NC(=O)[C@H](CC(C)C)NC(=O)[C@H](CO)NC(=O)[C@H](CO)NC2=O)C(=O)N[C@@H](C(C)C)C(=O)N[C@@H](Cc2ccc(O)cc2)C(=O)N[C@@H](Cc2ccccc2)C(=O)N1)C(=O)N[C@H](C(=O)N[C@@H](Cc1c[nH]c2ccccc12)C(=O)O)[C@@H](C)CC [endothelin] the “change in BNP gene expression (in words)” value [3] was “increased”, the “change in CgB gene expression (in words)” value [1, 4] was “no significant change” and the “change in SgII gene expression (in words)” value [2] was “no significant change”.
In the case of NC[C@H](O)c1ccc(O)c(O)c1 [norepinephrine], the “change in BNP gene expression (in words)” value ([3]; listed as NA) is reported as “increased; also recorded: most powerful stimulus; also recorded: potent agents for upregulating”, the “CgB gene expression, times upregulated” value ([1]; isolated cardiomyocytes, change vs. PBS stimulated cells (FIG. 8A)) is reported as 3 × and the “CgB gene expression, fold increase” value ([1]; neonatal rat cardiomyocytes, stimulated for 24 hours, change vs. PBS stimulated cells) is reported as 3 fold. For the same compound, the “change in CgB gene expression (in words)” value ([1]; neonatal rat cardiomyocytes, stimulated for 24 hours, vs. PBS stimulated cells, listed as NA) was “upregulated; also recorded: potent agents for upregulating”, the “SgII gene expression increase” value [2] was 55% and the “change in SgII gene expression (in words)” value ([2]; listed as NA) was “potent agents for upregulating; also recorded: increased”.
For “angiotensin II (DRVYIHPF; Angiotensin-2; UniProt P01019 25-32, looked up)”, the “change in BNP gene expression (in words)” value [3] was “increased”, the “change in CgB gene expression (in words)” value [1, 4] was “significantly upregulated” and the “change in CgB gene expression (in words)” value ([1]; neonatal rat cardiomyocytes, stimulated for 24 hours, vs. PBS stimulated cells, listed as AT II) was “upregulated”. The “change in CgB gene expression (in words)” value ([1]; neonatal rat cardiomyocytes, stimulated for 24 hours, vs. PBS stimulated cells, listed as Angiotensin II) was “significantly upregulated” and the “change in SgII gene expression (in words)” value [2] was “no significant change”.
interleukin-1β was tested, and the “change in CgB gene expression (in words)” value [1, 4] was “no significant change” and the “change in SgII gene expression (in words)” value [2] was “no significant change”.
In the case of monocyte chemoattractant protein-1, the “change in CgB gene expression (in words)” value [1, 4] is reported as “significantly upregulated”, the “change in CgB gene expression (in words)” value ([1]; neonatal rat cardiomyocytes, stimulated for 24 hours, vs. PBS stimulated cells, listed as MCP-1) is reported as “upregulated” and the “change in SgII gene expression (in words)” value [2] is reported as “no significant change”.
For “secretoneurin: 33 amino acid peptide fragment of SgII, 047-95, Phoenix Pharmaceuticals (TNEIVEEQYTPQSLATLESVFQELGKLTGPNNQ; Secretoneurin; UniProt P13521 182-214, looked up)”, the “change in BNP gene expression (in words)” value [3] was “did not affect”, the “change in CgB gene expression (in words)” value [1, 4] was “did not affect” and the “change in SgII gene expression (in words)” value [2] was “did not affect”. The “change in SgII gene expression (in words)” value ([2]; listed as SgII) was “no significant change”.
In the case of transforming growth factor-β, the “change in BNP gene expression (in words)” value ([3]; listed as TGF-β) is reported as “increased; also recorded: potent agents for upregulating”, the “change in CgB gene expression (in words)” value [1, 4] is reported as “significantly upregulated” and the “change in CgB gene expression (in words)” value ([1]; neonatal rat cardiomyocytes, stimulated for 24 hours, vs. PBS stimulated cells, listed as TGF-β) is reported as “upregulated; also recorded: potent agents for upregulating”. For the same compound, the “SgII gene expression increase” value [2] was 85% and the “change in SgII gene expression (in words)” value ([2]; listed as TGF-β) was “potent agents for upregulating; also recorded: increased”.
tumor necrosis factor-α was tested, and the “change in CgB gene expression (in words)” value [1, 4] was “no significant change” and the “change in SgII gene expression (in words)” value [2] was “no significant change”.
